The subject of one data set is SU-DHL-4 cells. Kind of data set: Hepatocyte/lymphoma co-culture with CHOP: cancer cell death, viability, caspase-3. It counts as cell-based, human. On the procedure:
HPH were cultured in collagen-coated 12-well plates and pretreated with vehicle control (0.1% DMSO) or hCAR activator (1 mmol/L) for 24 hours. The wells were then separated with […] polycarbonate membrane inserts (Sigma-Aldrich). A total of 0.5×10^6 SU-DHL-4 cells suspended in supplemented Williams' Medium E were transferred into the insert chamber with a final volume of 2 mL/well. In separate coculture experiments, HPH were replaced with either WT or CAR-KO HepaRG cells. The cocultures were exposed to designated concentrations of the chemotherapy drugs in CHOP in the presence or absence of hCAR activator for various time intervals, as indicated.
(§1) Homogenate proteins from treated HPH, H9c2 or HepaRG cells were resolved on NuPAGE Novex Bis-Tris 4% to 12% gels (Life Technologies) and electrophoretically transferred onto immobilon-P polyvinylidene difluoride membranes. Membranes were incubated with specific antibodies against human CAR (Perseus Proteomics), cleaved caspase-3 (Cell Signaling Technology), or g-H2AX (Millipore), diluted 1:1,000, 1:1,000, and 1:400, respectively. b-Actin was used to normalize protein loading. Following incubation with horseradish peroxidase goat antimouse or anti-rabbit IgG antibody, membranes were developed using SuperSignal West Pico Chemiluminescent Substrate (Thermo Scientific). Western blot signals were quantified by densitometry using ImageJ software from the National Institutes of Health.
HPHs and H9c2 rat cardiomyocytes were seeded at 7.5×10^4 cells per well in 96-well plates. HPH were cultured for 24 hours before treatment with hCAR activator (1 mmol/L) or vehicle control (0.1% DMSO), followed by treatment with the chemotherapy drugs included in CHOP at a range of concentrations. Culture medium containing CHOP drugs and metabolites was exchanged between the cell types at pre-determined time points. A typical 3-[4,5-dimethylthiazol-2-yl]-2,5 diphenyl tetrazolium bromide (MTT) assay was carried out as described previously (21). Cell viability was expressed as the percentage of vehicle control (0.1% DMSO). Cocultured cells were assembled and treated as described above. The viability of the SU-DHL-4 cells was determined at selected time points with a Cellometer Auto T4 (Nexcelom Biosciences) using trypan blue exclusion.

Another data set relates to H9c2 cells. The data set is described as follows: CHOP cytotoxicity in side-toxic H9c2 cells. It counts as cell-based, rat. Particulars: FIGS. 10A-10C, 11A-11F. Here is the method: as §1
HPHs and H9c2 rat cardiomyocytes were seeded at 7.5×10^4 cells per well in 96-well plates. […] Culture medium containing CHOP drugs and metabolites was exchanged between the cell types at pre-determined time points. […] Cell viability was expressed as the percentage of vehicle control (0.1% DMSO). […] The viability of the SU-DHL-4 cells was determined at selected time points with a Cellometer Auto T4 (Nexcelom Biosciences) using trypan blue exclusion.

The next data set has as its system EL4-derived xenograft. Kind of data set: EL4-derived xenograft in hCAR transgenic mice treated with CHOP. It counts as in vivo, mouse. Particulars: hCAR-TG mice, compared with vehicle, CITCO and CHOP controls; FIGS. 13-14. Here is the method:
The effects of the novel hCAR activator e.g. CITCO on the CHOP based anticancer therapy has been examined in EL4-derived xenograft hCAR transgenic mouse model (FIG. 12). The tumor volume reduction was measured to determine the effects of hCAR activator on the CHOP treatment upon xenograft tumor model in mouse.

Each structure is given as a SMILES string. “Also recorded” adds a separate entry of the source.

For `Clc1ccc(-c2nc3sccn3c2/C=N/OCc2ccc(Cl)c(Cl)c2)cc1` [CITCO, (E)-6-(4-chlorophenyl)imidazo[2,1-b]thiazole-5-carbaldehyde O-(3,4-dichlorobenzyl) oxime], the “effect on CHOP anticancer activity (cancer cell death)” value in the data set with SU-DHL-4 cells (hepatocyte/lymphoma co-culture, added to CHOP, FIGS. 10B-C) is “enhances CHOP-mediated cytoxicity; also recorded: potentiates the beneficial effects of CHOP in causing cancer cell death”. For the same compound, the “Caspase-3 expression on addition to CHOP” value with SU-DHL-4 cells (lymphoma cells, FIGS. 11A-11F) is “induction of apoptosis protein caspase-3; also recorded: dose dependent response of Caspase-3 expression”. Further, the “effect on CHOP-mediated cytotoxicity in H9c2 cells” value in the data set with H9c2 cells is given as “not H9c2 cells”. The “effect on therapeutic effects of CHOP (tumor volume, tumor mass)” value in the data set on EL4-derived xenograft is reported as “potentiate the therapeutic effects of the CHOP regimen”.

These data come from US11701345B2, “Car activator agents for cyclophosphamide-based treatments of cancer” (UNIVERSITY OF MARYLAND, BALTIMORE, priority 2017, dated 2023).
